This passage reports IC50 and EC50 results from patent US20250059174A1, “Pharmaceutical Compounds and Compositions as C-Kit Kinase Inhibitors” (Enanta Pharmaceuticals, Inc., priority 2023, published 2025).

Test [1] addresses Recombinant human c-KIT kinase (Homo sapiens (Human), UniProt P10721). In words: c-KIT kinase chemiluminescence assay (ADP-Glo). Type of test: biochemical. To be noted: ATP 50 μM. The method in brief:
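ADP formed by c-KIT on polyEY over 2 h at RT (after 30 min enzyme preincubation; Tris pH 7.5, MgCl2, BSA, DTT buffer) was detected by ADP-Glo luminescence. IC50 and Hill slope were fitted to control-normalized activity across compound concentrations.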
On the technique in general: In ADP-Glo the light output rises with the ADP produced.

The subject of another test is M-07e cells. Kind of test: M-07e cellular assay (SCF-mediated cell proliferation). In kind it is cell-based. To be noted: Homo sapiens, 72 hours, CellTiter Glo. Put shortly:
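CellTiter Glo luminescence after 72 h compound exposure in SCF (EC90)-stimulated M-07e cells expressing endogenous human c-KIT.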

Sequence of Recombinant human c-KIT kinase (P10721 26-976): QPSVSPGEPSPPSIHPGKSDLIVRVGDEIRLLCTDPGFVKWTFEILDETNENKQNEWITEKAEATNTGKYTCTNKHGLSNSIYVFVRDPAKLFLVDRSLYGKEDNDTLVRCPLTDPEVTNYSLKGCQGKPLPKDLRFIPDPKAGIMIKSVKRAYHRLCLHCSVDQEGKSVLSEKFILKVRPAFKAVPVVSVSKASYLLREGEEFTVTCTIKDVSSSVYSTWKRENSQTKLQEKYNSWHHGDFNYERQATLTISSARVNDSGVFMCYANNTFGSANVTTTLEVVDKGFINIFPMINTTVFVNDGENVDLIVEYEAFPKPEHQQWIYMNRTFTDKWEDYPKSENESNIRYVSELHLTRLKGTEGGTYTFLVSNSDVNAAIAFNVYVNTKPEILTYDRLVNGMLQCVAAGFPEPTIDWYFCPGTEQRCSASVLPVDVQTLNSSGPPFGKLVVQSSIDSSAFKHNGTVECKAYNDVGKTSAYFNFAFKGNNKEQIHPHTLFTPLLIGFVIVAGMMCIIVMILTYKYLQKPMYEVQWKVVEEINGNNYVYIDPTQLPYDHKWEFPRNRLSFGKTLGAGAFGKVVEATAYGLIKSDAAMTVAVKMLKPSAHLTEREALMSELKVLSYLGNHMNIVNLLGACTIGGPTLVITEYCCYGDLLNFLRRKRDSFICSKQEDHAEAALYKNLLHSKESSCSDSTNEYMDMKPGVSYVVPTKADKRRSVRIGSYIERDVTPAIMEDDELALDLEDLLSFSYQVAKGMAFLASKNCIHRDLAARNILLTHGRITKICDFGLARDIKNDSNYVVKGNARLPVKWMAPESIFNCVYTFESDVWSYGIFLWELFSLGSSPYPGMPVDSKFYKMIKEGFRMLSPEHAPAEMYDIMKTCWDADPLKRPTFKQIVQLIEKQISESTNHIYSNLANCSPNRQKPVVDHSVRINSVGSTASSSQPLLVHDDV

What is called IC50 is the concentration at which inhibition is half-maximal. As usually defined, the EC50 is the midpoint of the concentration-response curve. High values mean a need for much substance, low ones an effect from little substance. With `Cc1ccc(-c2noc([C@H]3C[C@@H]3F)n2)cc1NC(=O)c1cnn2ccc(N3CC(C(=O)N4CC(F)(F)C4)C3)cc12` [Example 241-11], the IC50 in test [1] was under 100 nM. Moreover, the EC50 in the test on M-07e cells is under 100 nM.
As for `Cc1ccc(-c2noc([C@H]3C[C@@H]3F)n2)cc1NC(=O)c1cnn2ccc(N3CC4(CN(C(=O)C5CC(F)(F)C5)C4)C3)cc12` [Example 241-12], the IC50 in test [1] was under 100 nM. In the test on M-07e cells, this compound had an EC50 of under 100 nM.
Regarding `Cc1ccc(-c2noc([C@H]3C[C@@H]3F)n2)cc1NC(=O)c1cnn2ccc(N3CC(COCc4ccccc4)(C(=O)OCc4ccccc4)C3)cc12` [Example 241-13], the IC50 in test [1] is over 1000 nM. Further, the EC50 in the test with M-07e cells was over 1000 nM.
Consider `Cc1ccc(-c2noc([C@H]3C[C@@H]3F)n2)cc1NC(=O)c1cnn2ccc(NCC3(C(=O)O)COC3)cc12` [Example 241-14], for which, in test [1], the IC50 lay within 100 to 1000 nM. Also, the EC50 in the test on M-07e cells is over 1000 nM.
As to `Cc1ccc(-c2noc([C@H]3C[C@@H]3F)n2)cc1NC(=O)c1cnn2ccc(N3CC4(CN(C(=O)C(F)(F)F)C4)C3)cc12` [Example 241-15], in test [1], the IC50 is under 100 nM. This compound also returned an EC50 in the test with M-07e cells of under 100 nM.
As to `Cc1ccc(-c2noc([C@H]3C[C@@H]3F)n2)cc1NC(=O)c1cnn2ccc(N3CC(CO)(C(=O)O)C3)cc12` [Example 241-16], the IC50 in test [1] fell in the range of 100 to 1000 nM. The compound further registered an EC50 with M-07e cells of over 1000 nM.
The corresponding values for `Cc1ccc(-c2noc([C@H]3C[C@@H]3F)n2)cc1NC(=O)c1cnn2ccc(N3CCOCC3)cc12` [Example 241] are under 100 nM and under 100 nM.
Regarding `Cc1ccc(-c2noc([C@H]3C[C@@H](OC(F)(F)F)C3)n2)cc1NC(=O)c1cnn2ccc(N3CC4(COC4)C3)cc12` [Example 243], the IC50 in test [1] was under 100 nM. Moreover, the EC50 in the test with M-07e cells was under 100 nM.
With `Cc1ccc(-c2noc([C@H]3C[C@@H](OC(F)(F)F)C3)n2)cc1NC(=O)c1cnn2ccc(N3CC4(CN(CC(F)(F)F)C4)C3)cc12` [Example 244], the IC50 in test [1] is under 100 nM. Moreover, the EC50 in the test with M-07e cells is under 100 nM.
For `Cc1ccc(-c2noc([C@H]3C[C@H](OC(F)(F)F)C3)n2)cc1NC(=O)c1cnn2ccc(N3CC4(COC4)C3)cc12` [Example 245], the IC50 in test [1] was under 100 nM. In the test on M-07e cells, the EC50 was under 100 nM.
`Cc1ccc(-c2noc([C@H]3C[C@@H](OC(C)C)C3)n2)cc1NC(=O)c1cnn2ccc(N3CC4(CN(CC(F)(F)F)C4)C3)cc12` [Example 246]: in test [1], the IC50 fell in the range of 100 to 1000 nM. Also, the EC50 in the test on M-07e cells was under 100 nM.
The corresponding values for `Cc1ccc(-c2noc([C@H]3C[C@H](OC(F)F)C3)n2)cc1NC(=O)c1cnn2ccc(N3CC4(COC4)C3)cc12` [Example 247] are under 100 nM and under 100 nM.
For `Cc1ccc(-c2noc([C@H]3C[C@@H](OC(F)F)C3)n2)cc1NC(=O)c1cnn2ccc(N3CC4(CCN(CC(F)F)C4)C3)cc12` [Example 248], in test [1], the IC50 was 100 to 1000 nM. Also, in the test on M-07e cells, the EC50 was under 100 nM.
The corresponding values for `Cc1ccc(-c2noc(C34CC(F)(C3)C4)n2)cc1NC(=O)c1cnn2ccc(N3CC4(COC4)C3)cc12` [Example 249] are under 100 nM and under 100 nM.
As for `Cc1ccc(-c2noc([C@H]3C[C@@H](OC(F)F)C3(C)C)n2)cc1NC(=O)c1cnn2ccc(N3CC4(COC4)C3)cc12` [Example 250], the IC50 in test [1] is under 100 nM. Also, the EC50 in the test on M-07e cells fell in the range of 100 to 1000 nM.
The corresponding values for `Cc1ccc(-c2noc([C@H]3C[C@@H](OC(F)(F)F)C3)n2)cc1NC(=O)c1cnn2ccc(N3CC4(CCN(CC(F)F)C4)C3)cc12` [Example 251] are 100 to 1000 nM and 100 to 1000 nM.
The corresponding values for `Cc1ccc(-c2noc([C@H]3C[C@@H](OC(F)(F)F)C3)n2)cc1NC(=O)c1cnn2ccc(N3CC4(CCN(CC(F)(F)F)C4)C3)cc12` [Example 252] are 100 to 1000 nM and 100 to 1000 nM.
For `Cc1ccc(-c2noc([C@H]3C[C@@H](OC(F)F)C3)n2)cc1NC(=O)c1cnn2ccc(N3CC4(CCN(CC(F)(F)F)C4)C3)cc12` [Example 253], in test [1], the IC50 was 100 to 1000 nM. Further, the EC50 with M-07e cells fell in the range of 100 to 1000 nM.
